Measured values from US20250019652A1, “PRODUCTION METHOD FOR SHEET-LIKE RETINAL TISSUE” (RIKEN, priority 2021, published 2025).

Tests used:
Assay type in all cases: cell-based, human
[1] = system: single cells dispersed from KhES-1- and 1231A3-derived aggregates; test: Aggregate proliferation-promoting factor: aggregate area in suspension culture with Y-27632 (Example 2); details: SAG 300 nM or CHIR99021 3 μM in addition to 10 μM Y-27632; Day 1, 7, 14
Protocol: The aggregates of Day 20 (1231A3) and Day 27 (KhES-1) from initiation of the suspension culture prepared as in Example 1 were washed with PBS, and a neuronal cell dispersion solution (manufactured by FUJIFILM Wako Pure Chemical Corp.) was added. After incubation at 37° C., they were dispersed into single cells by pipetting. These cells were suspended in 100 μL of a serum-free medium containing 10 μM Y-27632 (FUJIFILM Wako Pure Chemical Corp.) so as to become 2 to 5×10^5 cells per well of a non-cell adhesive 96-well culture plate (trade name: PrimeSurface 96-well V-bottom plate, manufactured by Sumitomo Bakelite Co., Ltd.), and suspension-cultured at 37° C. and 5% CO2. […] The reformed states of the aggregates were observed under a bright field microscope and a fluorescence microscope (BZ-X810 manufactured by Keyence Corp.) on Day 1, Day 7, and Day 14 after suspension culture for aggregate reforming. The areas of the aggregates were measured in Image J. The results of the KhES-1-derived cells are shown in FIG. 6 (an average value from 12 […] measured). The results of the 1231A3-derived cells in which the reformed states of the aggregates of Day 1 after suspension culture were observed are shown in FIG. 7.

[2] = system: single cell suspension of dispersed retinal cells (KhES-1-derived); test: Layer structure formation-promoting factor: reformed aggregates, immunostained sections (Example 3); details: 300 nM SAG in addition to 3 μM CHIR99021
Protocol: The aggregates of Day 26 from initiation of the suspension culture prepared as in Example 1 were washed with PBS, and a neuronal cell dispersion solution (manufactured by FUJIFILM Wako Pure Chemical Corp.) was added. After incubation at 37° C., they were dispersed into single cells by pipetting. These cells were suspended in 100 μL of a serum-free medium so as to become 3.0×10^4 cells per well of a non-cell adhesive 96-well culture plate (trade name: PrimeSurface 96-well V-bottom plate, manufactured by Sumitomo Bakelite Co., Ltd.), and suspension-cultured at 37° C. and 5% CO2.
The aggregates of Day 15 (corresponding to Differentiation Day 41) and Day 28 (corresponding to Differentiation Day 54) after suspension culture for aggregate reforming were fixed in 4% PFA, and frozen sections were prepared. These frozen sections were subjected to immunostaining using DAPI and anti-Chx10 antibody (trade name: Anti CHX10 Antibody, Exalpha Biologicals Inc.), anti-β-catenin antibody (R&D Systems, Inc.), anti-collagen IV antibody (Abcam plc), anti-Zo-1 antibody (Invitrogen Corp.), anti-Ki67 antibody (Becton, Dickinson and Company), anti-Pax6 antibody (BioLegend, Inc.), anti-RxR-γ (RxRg) antibody (Spring Bioscience Corp.), anti-CRX antibody (Abnova Corp.), anti-NRL antibody (R&D Systems, Inc.), anti-recoverin antibody (manufactured by Proteintech Group, Inc.), anti-Islet-1 antibody (Developmental Studies Hybridoma Bank (DSHB)), anti-GS antibody (Sigma-Aldrich Co., LLC), anti-Brn3 antibody (Santa Cruz Biotechnology), and anti-calretinin antibody (R&D Systems, Inc.).
These immunostained sections were observed under a bright field microscope and a fluorescence microscope (BZ-X810 manufactured by Keyence Corp.) and a confocal laser scanning fluorescence microscope (SP-8 manufactured by Leica), and the results are shown in FIGS. 11 to 20. […] From FIGS. 19 and 20, it was confirmed that RxR-Y(RxRg)-positive and CRX-positive cone progenitor cells and recoverin-positive and CRX-positive photoreceptor progenitor cells were differentiated, and the differentiation of Islet-1-positive and Brn3-positive retinal ganglion cells and calretinin-positive amacrine cells was also confirmed.

[3] = system: KhES-1 Rx::Venus aggregates (NR) of Day 26; test: CD39 expression analysis with different concentrations of SAG at start of differentiation (Example 24)
Protocol: The morphology of aggregates (NR) of Day 26 from initiation of the suspension culture prepared by adding (1) 0 nM, (2) 30 nM, or (3) 300 nM SAG at the start of differentiation was observed under a microscope.
The aggregates were dispersed into single cells using a neuronal cell dispersion solution, and FACS analysis was conducted as to the expression of CD39 and CXCR4 using anti-CD39-APC conjugate antibody (Miltenyi Biotec) and anti-CXCR4-APC conjugate antibody (Miltenyi Biotec). The percentage of an expressing cell population was measured using FACSCantoII (BD Biosciences), and analysis was conducted using FlowJo. These aggregates were fixed in 4% PFA, and sections were prepared and then subjected to staining using anti-ALDH1A1 antibody (R&D Systems, Inc.), anti-CoupTF1 antibody (Perseus Proteomics Inc. (PPMX)), anti-LHX2 antibody (manufactured by Merck Millipore), anti-Chx10 antibody (manufactured by Exalpha Biologicals Inc.), anti-Pax2 antibody (manufactured by Covance), and anti-NKX2.1 antibody (manufactured by Leica).

[4] = system: aggregates (NR), KhES-1-derived neural retinal tissues; test: Study on enhancement in CD39 expression, FACS (Example 25); details: added Day 17 to Day 25; DMSO control
Protocol: For aggregates (NR) prepared by adding 300 nM SAG at the start of differentiation (dd0), 10 neural retinal tissues were transferred to low adhesive 60-mm Petri dish for suspension culture (manufactured by Sumitomo Bakelite Co., Ltd.) on Day 17 from initiation of the suspension culture. 1 mM or 0.2 mM adenosine (A2A receptor agonist, manufactured by Sigma-Aldrich Co. LLC), 1 mM, 0.2 mM, or 0.04 mM AMP-PNP (manufactured by Tocris Bioscience), 5 mM, 1 mM, 0.2 mM, or 0.04 mM ATP disodium salt (manufactured by Tocris Bioscience), and 1μ, 0.2μ, or 0.04μ M CGS 21680 (Adenosine A2A Receptor Agonist, manufactured by Tocris Bioscience) were added into 4 mL of NucT0 medium. Culture was performed up to Day 25 from initiation of the suspension culture. Change in expression of CD39 and CXCR4 was stained using Mouse IgG1-APC conjugate antibody (Miltenyi Biotec), anti-CD39-BV421 conjugate antibody (BD Biosciences) and anti-CXCR4-APC conjugate antibody (Miltenyi Biotec) and measured using FACSCantoII (BD Biosciences), and analysis was conducted using FlowJo. As a control, a DMSO addition group was established.

[5] = system: retinal progenitor cells dispersed into single cells (KhES-1- and 1231A3-derived aggregates); test: Search of aggregate reforming factor: suspension culture of dispersed retinal cells (Example 1); details: added at cell seeding; Y-27632 10 μM or 20 μM; Day 1 to Day 2 of suspension culture
Protocol: Human ES cells (KhES-1 strain (Non Patent Literature 3)) and human iPS cells (1231A3 strain, Kyoto University) genetically engineered so as to have Rx::Venus reporter gene were cultured under feeder-free conditions in accordance with the method described in “Scientific Reports, 4, 3594 (2014)”. As a feeder-free medium, StemFit medium (trade name: AK03N, manufactured by Ajinomoto Co., Inc.) was used, and as a scaffold as an alternative to feeder cells, Laminin511-E8 (trade name, manufactured by Nippi, Inc.) was used.
Specific operation of maintenance culture for human ES and human iPS cells (human ES/iPS cells) was performed as follows: First, human ES/iPS cells that reached sub-confluency (state where about 60% of the culture area was covered by cells) were washed with PBS and separated into single cells by use of TrypLE Select (trade name, manufactured by Life Technologies). In this context, the dispersion into single cells refers to performing dispersion so as to become single cells, and a cell population dispersed into single cells is capable of containing a mass of 2 to 50 cells, in addition to single cells. Then, the separated human ES single cells were seeded in plastic culture dishes coated with Laminin 511-E8 and cultured under feeder-free conditions in StemFit medium in the presence of Y-27632 (ROCK inhibitor, 10 μM). […]

[6] = system: Rx::Venus-positive cells (KhES-1-derived); test: Maintenance culture of retinal cell in Rx::Venus strain (Example 13); details: 20 ng/ml continuously added; after 34 days
Protocol: (§1) The aggregates of Day 31 from initiation of the suspension culture prepared as in Example 1 were washed with PBS, and a neuronal cell dispersion solution (manufactured by FUJIFILM Wako Pure Chemical Corp.) was added. After incubation at 37° C., they were dispersed into single cells by pipetting.
After 34 days, cell sheets were fixed in 4% PFA, and the nuclei were stained using DAPI. Observation was made focusing on the areas of Rx::Venus-positive cells, and the state of maintenance of retinal cells was studied.

[7] = system: Rx::Venus-sorted cells (KhES-1-derived NR, Day 25); test: Search of factor that maintains property of retina at preparation into sheet again (Example 18); details: compared with PBS control; 10 days after seeding
Protocol: as §1, with “aggregates (NR)” for “aggregates”, “25” for “31”, “prepared” for “prepared as”, “pipetting, and sorting was carried out with Rx::Venus as an index using Cell sorter ARIAII (Becton, Dickinson and Company).” for “pipetting.”
3 days after seeding, the medium was similarly replaced so as to maintain the concentrations of the low-molecular compounds or the proteins described in Tables 1 and 2. […] 10 days after seeding, fixation was performed in 4% PFA, and the evaluation of the cells after sorting was conducted with Rx::Venus as an index under a fluorescence microscope (BZ-X810 manufactured by Keyence Corp.).

## CNC1CCC(N(Cc2cccc(-c3ccncc3)c2)C(=O)c2sc3ccccc3c2Cl)CC1 (centres unmarked) [SAG]
[1]
  size of reformed aggregates versus only Y-27632: larger aggregates were reformed
[2]
  size of aggregates: aggregates were larger
[3]; 0 nM and 30 nM SAG compared with 300 nM SAG at dd0, Day 26
  morphology of aggregates: aggregates were larger and a layer structure was clearer
[3]; 300 nM SAG at dd0
  expression of CD39 (FACS): CD39 was expressed
  expression of CXCR4 (FACS): low expression of CXCR4 was observed
[3]; addition of SAG on dd0
  expression of dorsal marker ALDH1A1: Decrease in expression of a dorsal marker ALDH1A1
  expression of ventral marker CoupTF1: increase in expression of a ventral marker CoupTF1

## Nc1ncnc2c1ncn2[C@@H]1O[C@H](COP(=O)(O)OP(=O)([O-])OP(=O)([O-])O)[C@@H](O)[C@H]1O.[Na+].[Na+] [ATP]
[4]
  expression of CD39 (FACS): enhancing the expression of CD39
  expression of CXCR4 (FACS): decreasing the expression of CXCR4

## C[C@@H](N)[C@H]1CC[C@H](C(=O)Nc2ccncc2)CC1 [Y-27632]
[5]
  early aggregate reforming: aggregates were reformed from Day 1 to Day 2

## EGF: growth factor added at 20 ng/ml
[6]
  maintenance of Rx::Venus-positive cells: Rx::Venus-positive cells were widely maintained

## FGF2: fibroblast growth factor, FGF signaling pathway agonist
[6]
  maintenance of Rx::Venus-positive cells: Rx::Venus-positive cells were widely maintained
[7]
  expression intensity of Rx::Venus: high expression intensity of Rx::Venus

## O=C(Nc1cccc2cccnc12)c1ccc(N2C(=O)[C@@H]3[C@H](C2=O)[C@@H]2C=C[C@H]3C2)cc1 [IWR1 endo, 4-[(3aR,4S,7R,7aS)-1,3,3a,4,7,7a-hexahydro-1,3-dioxo-4,7-methano-2H-isoindol-2-yl]-N-8-quinolinyl-benzamide, reference compound]
[7]
  expression intensity of Rx::Venus: high expression intensity of Rx::Venus
